Reference: US10800752B2, “Substituted naphtho[2,3-b]furans as water-soluble prodrugs for preventing and/or treating cancer” (BOSTON BIOMEDICAL, INC., priority 2015, dated 2020)

What was measured:
[1] = Evaluation of a conversion rate to 2-acetylnaphtho[2,3-b]furan-4,9-dione in human plasma; format: in vitro ADME; conditions: Human plasma, 1 umol/L, 37° C., incubation time 120 min
Protocol: (§1) For test compounds, the decrease rate of the test compounds and the conversion rate thereof to 2-acetylnaphtho[2,3-b]furan-4,9-dione in human plasma, CD1 mouse plasma, and pH 7.4 phosphate buffer solution were measured.
(§2) Test compounds were incubated at the concentration of 1 umol/L in human plasma (cat. no. 12250210, COSMO BIO), CD1 mouse plasma (cat. no. AP3054, KAC), and phosphate buffer solution at 37° C., and removed at predetermined times (0, 5, 10, 30, 60, and 120 minutes). After protein-removing treatment was performed, they are analyzed with LC-MS. It should be noted that the protein-removing treatment used acetonitrile containing: 10% volume of 1 mol/L hydrochloric acid; 1% volume of 46% citric acid; and phenytoin as an internal standard.
(§3) The measurement condition of LC-MS is as described below. LC-MS condition column: Kinetex 2.6 u PFP 100 A 50×2.1 mm Column temperature: 40° C.
(§4) Mobile phase: A: 0.1% formic acid-containing water
(§5) • B: 0.1% formic acid-containing acetonitrile A/B(min): 95/5(0)→5/95(3)→5/95(4)→95/5(4.1)→95/5(6) Flow rate: 0.4 mL/min Detection: ESI (positive mode) Injection volume: 10 uL
In the same way as Example 6, the incubation time was set as 120 minutes later, and the conversion rate of each of various test compounds to 2-acetylnaphtho[2,3-b]furan-4,9-dione in human plasma, CD1 mouse plasma, and pH 7.4 phosphate buffer solution was measured.

[2] = Evaluation of a conversion rate to 2-acetylnaphtho[2,3-b]furan-4,9-dione in pH 7.4 phosphate buffer solution; format: physicochemical; conditions: Phosphate buffer solution (pH 7.4), 1 umol/L, 37° C., incubation time 120 min
Protocol: as §1, §2, §3, §4, §5
Measurement values are calculated from the peak area ratio in LC-MS between an internal standard material, phenytoin and an active form, 2-acetylnaphtho[2,3-b]furan-4,9-dione, and are expressed in %.
In the same way as Example 6, the incubation time was set as 120 minutes later, and the conversion rate of each of various test compounds to 2-acetylnaphtho[2,3-b]furan-4,9-dione in human plasma, CD1 mouse plasma, and pH 7.4 phosphate buffer solution was measured. A series of the present compounds were confirmed to be converted to 2-acetylnaphtho[2,3-b]furan-4,9-dione in pH 7.4 phosphate buffer solution in addition to human plasma and CD1 mouse plasma. Therefore, a series of the test compounds of the present invention were confirmed to be converted to the activated form via a route other than an enzymatic conversion.

Solubility test = conditions: 50 mmol/L glycine buffer solution (pH 2.0), room temperature, 24 hours shaking
Protocol: A water-soluble prodrug was added into 50 mmol/L glycine buffer solution (pH 2.0). After shaking at room temperature for 24 hours, the mixture was filtered through a membrane filter, and then the filtrate was measured with HPLC.
The measurement condition of HPLC is as described below. HPLC condition column: Acquity UPLC BEH C18, 1.7 um, 50×2.1 mm
Mobile phase: A: 0.1% trifluoroacetic acid-containing water

| Compound | % Measurement value (conversion rate to 2-acetylnaphtho[2,3-b]furan-4,9-dione) [1] [%] | % Measurement value (conversion rate to 2-acetylnaphtho[2,3-b]furan-4,9-dione) [2] [%] | Solubility in pH 2.0 buffer solution (Solubility test) [mg/mL] |
| --- | --- | --- | --- |
| CC(=O)c1cc2c(OC(=O)NCCNCCS(=O)(=O)N3CCCCC3)c3ccccc3c(OC(=O)NCCNCCS(=O)(=O)N3CCCCC3)c2o1.Cl.Cl [Example 56] | 63 | 30 | 3.3 |
| CC(=O)c1cc2c(OC(=O)NCCNCCS(=O)(=O)N(C)C)c3ccccc3c(OC(=O)NCCNCCS(=O)(=O)N(C)C)c2o1.Cl.Cl [Example 57] | 68 | 34 | >5.0 |
| CC(=O)c1cc2c(OC(=O)NCCNCCS(=O)(=O)C(C)C)c3ccccc3c(OC(=O)NCCNCCS(=O)(=O)C(C)C)c2o1.Cl.Cl [Example 58] | 81 | 40 | 1.5 |
| CC(=O)c1cc2c(OC(=O)NCCCNCCS(=O)(=O)N(C)C)c3ccccc3c(OC(=O)NCCCNCCS(=O)(=O)N(C)C)c2o1.Cl.Cl [Example 59] | 81 | 66 | >5.0 |
| CC(=O)c1cc2c(OC(=O)NCCCNCCS(C)(=O)=O)c3ccccc3c(OC(=O)NCCCNCCS(C)(=O)=O)c2o1.Cl.Cl [Example 60] | 68 | 39 | >5.0 |
| CC(=O)c1cc2c(OC(=O)NCCNCCS(C)(=O)=O)c3ccccc3c(OC(=O)NCCNCCS(C)(=O)=O)c2o1.Cl.Cl [Example 61] | 87 | 55 | 2.5 |
| CC(=O)c1cc2c(OC(=O)NCCNCC(=O)N3CCC3)c3ccccc3c(OC(=O)NCCNCC(=O)N3CCC3)c2o1.Cl.Cl [Example 62] | 65 | 37 | >5.0 |
| CC(=O)c1cc2c(OC(=O)NCCCNCC(=O)N3CCC3)c3ccccc3c(OC(=O)NCCCNCC(=O)N3CCC3)c2o1.Cl.Cl [Example 63] | 59 | 51 | >5.0 |
| CC(=O)c1cc2c(OC(=O)NCCCNCC(=O)NCC(=O)O)c3ccccc3c(OC(=O)NCCCNCC(=O)NCC(=O)O)c2o1.Cl.Cl [Example 64] | 57 | 40 | >5.0 |
| CC(=O)c1cc2c(OC(=O)NCCNCCOC(N)=O)c3ccccc3c(OC(=O)NCCNCCOC(N)=O)c2o1.Cl.Cl [Example 65] | 81 | 73 | >5.0 |
| CC(=O)c1cc2c(OC(=O)NCCCNCCOC(N)=O)c3ccccc3c(OC(=O)NCCCNCCOC(N)=O)c2o1.Cl.Cl [Example 66] | 59 | 44 | >5.0 |
| COC(=O)NCCNCCNC(=O)Oc1c2ccccc2c(OC(=O)NCCNCCNC(=O)OC)c2oc(C(C)=O)cc12.Cl.Cl [Example 67] | 78 | 60 | >5.0 |
| COC(=O)NCCNCCCNC(=O)Oc1c2ccccc2c(OC(=O)NCCCNCCNC(=O)OC)c2oc(C(C)=O)cc12.Cl.Cl [Example 68] | 73 | 59 | >5.0 |
